The values that follow come from article PMC6270838, “Design and Synthesis of C-Terminal Modified Cyclic Peptides as VEGFR1 Antagonists” (Molecules, 2014).

Data set [1] in a line: water solubility (qualitative). The class given is physicochemical. The note with it: qualitative comparison between peptides.
The target in data set [2] is recombinant human VEGFR1 extracellular domains (ECD) (Homo sapiens, UniProt P17948). The note with it: average of at least 3 tests each in triplicate. Here is the method:
Peptides VEGFR1 binding ability was determined by a competition ELISA test. Briefly, recombinant human VEGFR1 extracellular domains (ECD) were adsorbed on the surface of a 96-well microplate. After washing and BSA blocking, the plate was incubated with different compounds at 100 µM in competition with biotinylated VEGF (btVEGF). After additional washing steps, the remaining btVEGF was detected by chemiluminescence, via an HRP-conjugated streptavidin.
The 96-well plates were coated with humanized extracellular domains (ECD) of VEGFR-1 (R&D Systems, Abingdon, UK) in PBS (20 ng/well) overnight at 4 °C. On the following day, the plates were washed with 250 µL wash buffer (PBS containing 0.1% (v/v) Tween 20) three times and treated with blocking buffer (PBS containing 3% (w/v) BSA) at 37 °C for 2 h, followed by three washes with wash buffer. 50 µL of peptides solution at twice the desired final concentration (in PBS containing 2% DMSO) were added in triplicate wells and the plate was kept at 37 °C for 1 h. A solution of btVEGF-A165 (R & D Systems, Abingdon, UK) at twice the desired final concentration (typically 100 pM) in 50 µL PBS was added. After 2 h incubation, the plates were washed four times with wash buffer. 100 µL of Streptavidin‑Horseradish Peroxidase (Amersham, Pittsburgh, PA, USA) diluted 1:8000 w in PBS containing 0.1% (v/v) Tween 20 and 0.3% (w/v) BSA) were then added to each well to detect the btVEGF‑A165 bound to the ECD of VEGFR1. After 45 min incubation at 37 °C and in the dark, the plate was washed five times with wash buffer. A volume of 100 µL of SuperSignal West Pico Chemioluminescent Substrate (Pierce, Rockford, IL, USA) was added and the chemiluminescence was quantified with a Perkin Elmer Victor 2 spectrophotometer (Victor Wallac Multilabel reader). The percentages of displacement were calculated by the following formula: 100 × [1 − (S − NS)/(MS − NS)] where S is the signal measured, NS is the nonspecific binding signal defined as the signal measured in the absence of coated receptor on the microplate, and MS is the maximum binding signal obtained with (bt)-VEGF-A165 without competitor.

The next data set relates to D2 domain of VEGFR1. The conditions noted are these: shares with VEGF a common binding site on D2 (His223, Arg224); cited from earlier work. An excerpt:
In the laboratory, a series of cyclic octapeptides has been developed.

Bridge positions count the residues as written; N and C are the ends. Peptide text beside a SMILES is read from it. * marks the point of attachment. X1 = COc1ccc2c(CN*)cc(=O)oc2c1

recombinant human VEGFR1 extracellular domains (ECD), sequence (P17948 27-758 limits assumed): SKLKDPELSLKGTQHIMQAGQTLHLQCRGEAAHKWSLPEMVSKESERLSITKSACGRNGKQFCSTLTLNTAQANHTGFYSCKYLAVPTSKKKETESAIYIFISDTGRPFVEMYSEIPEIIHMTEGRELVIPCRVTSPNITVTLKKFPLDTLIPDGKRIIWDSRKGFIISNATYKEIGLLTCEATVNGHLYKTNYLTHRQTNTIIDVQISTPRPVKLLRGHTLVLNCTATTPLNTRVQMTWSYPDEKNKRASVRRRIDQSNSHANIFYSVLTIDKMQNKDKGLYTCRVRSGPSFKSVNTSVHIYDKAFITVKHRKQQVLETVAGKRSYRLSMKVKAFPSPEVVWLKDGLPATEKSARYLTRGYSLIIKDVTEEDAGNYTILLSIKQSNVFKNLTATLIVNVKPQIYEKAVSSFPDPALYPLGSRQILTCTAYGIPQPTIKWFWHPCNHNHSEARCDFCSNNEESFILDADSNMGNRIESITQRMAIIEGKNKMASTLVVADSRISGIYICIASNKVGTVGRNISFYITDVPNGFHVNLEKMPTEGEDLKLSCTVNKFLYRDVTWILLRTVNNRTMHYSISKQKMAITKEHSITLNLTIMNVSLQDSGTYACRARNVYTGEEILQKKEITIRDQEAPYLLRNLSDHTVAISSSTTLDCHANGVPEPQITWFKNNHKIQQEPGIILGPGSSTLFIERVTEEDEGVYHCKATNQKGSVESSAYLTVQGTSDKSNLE

Turning to `COc1ccc2c(CNC(=O)[C@@H]3CCC(=O)N[C@@H](Cc4ccc(O)cc4)C(=O)N[C@@H](CCCCN)C(=O)N[C@@H](CC(=O)O)C(=O)N[C@@H](CCC(=O)O)C(=O)NCC(=O)N[C@@H](CC(C)C)C(=O)N[C@@H](CCC(=O)O)C(=O)N3)cc(=O)oc2c1` [Peptide 19] (YKDEGLEE-X1; lactam N-8), the water solubility entry in data set [1] was “slightly less water soluble than 15 and 16”. Besides, in data set [2] (dose dependence, peptide 30 µM, NA means no activity), the “Displacement (%) 30 µM” value stood at 11%. For the same molecule, in data set [2] (dose dependence, peptide 50 µM), the “Displacement (%) 50 µM” value turned out to be 41%. Further, in data set [2] (dose dependence, peptide 100 µM), the “Displacement (%) 100 µM” value stood at 68%. In addition, the “Displacement 100 µM (%)” value in data set [2] (percentage of btVEGF displaced by peptide at 100 µM, btVEGF-A165 typically 100 pM, chemiluminescence, same btVEGF batch) came out at 68%.
Regarding “c[YYDEGLEE]-NH2 (sidechain bridge or staple) [Peptide 1]”, the “interaction with the D2 domain of VEGFR1 by NMR” value in the data set on D2 domain of VEGFR1 is “interacts”.
